Data as given in patent US4248879A, “Benzopyranotriazoles” (Beecham Group Limited, priority 1978, dated 1981).

Key:
rat PCA = assay: Passive Cutaneous Anaphylaxis (PCA) in rats; assay type: in vivo, Male Wistar rats; conditions: S.C.
Experimental: Serum containing heat-labile homocytotropic antibody was raised in rats to crystallized ovalbumin XOA by the method of Mota (I. Mota, Immunology, 7, 681, (1964)) using Bordettela pertussis vaccine as adjuvant.
Passive cutaneous anaphylaxis (PCA) was carried out by a method based on that of Ovary and Bier, (A. Ovary and O. G. Bier, Proc. Soc. Exp. Bio. Med 81, 584, (1952)) as modified by Goose and Blair. (Immunology 16, 749 (1969)).
Male Wistar rats of 250-300 g were give 0.1 ml of each of six twofold serial dilutions of pooled antiserum in 0.9% saline injected intradermally into separate sites in their shaved backs. Later (72 hours) the animals were challenged by intravenous injection of 0.3 ml of a 1% solution of ovalbumin in an isotonic solution of saline buffered with 0.05 M, pH 7.2, Sorenson Buffer (PBS), mixed with 0.2 ml of a 5% solution of Pontamine Sky Blue (6BX C.I. 24410, Raymond A. Lamb, London) in isotonic saline. The rats were killed after 20 minutes and the diameter of the blue wheals at the antibody injection sites was measured on the outer surface of the skin. The starting dilution of the serum was adjusted so that there was no response, after challenge, at the injection site of the highest dilution and a maximum response at the lowest dilutions. Typically six twofold serial dilutions of the serum from 1/4 to 1/128 were used.
Compounds were tested for their ability to reduce the diameter of the wheals at those intradermal sites which in control animals gave less than maximum response. Each dose of the compound was administered to six rats at a measured time prior to intravenous challenge with ovalbumin. Control groups of six rats were given the same volume (0.2 ml: 100 g^-1) of carrier fluid at the same time prior to the challenge.
The results were calculated as follows: % inhibition of PCA=100 (1-a/b) where a=the sum of the diameters of the wheals produced in the test animal at the sites of antibody dilutions as used in control groups and b=the mean sum of the diameters of the wheals produced in the control group of animals at those antibody sites where at least five out of six of the animals gave less than maximum response. A typical variation in the control group of animals was SEM±6%.

LD50 (toxicity) in mice = conditions: mouse, in vivo
Experimental: The LD50 of the compound of Example 6 (d) is between 20 to 80 mg/kg i.v. and between 125 to 500 mg/kg per os, in mice.

[1] = PBS with NaHCO3, 10 mins before antigen challenge, 10 mg/kg
[2] = PBS with NaHCO3, 30 mins before antigen challenge, 10 mg/kg
[3] = PBS with NaHCO3, 10 mins before antigen challenge, 20 mg/kg
[4] = PBS with NaHCO3, 30 mins before antigen challenge, 20 mg/kg
[5] = PBS with NaHCO3, 10 mins before antigen challenge, 5 mg/kg
[6] = PBS with NaHCO3, 30 mins before antigen challenge, 5 mg/kg

With Cc1ccc2oc3nn[nH]c3c(=O)c2c1 [Example 3, 7-Methyl-9-oxo-1H,9H-benzopyrano[2,3]-v-triazole] the “% Inhibitions of rat PCA” value (rat PCA; [1]) was 78% and the “% Inhibitions of rat PCA” value (rat PCA; [2]) was 41%.

In the case of Cc1ccc2c(=O)c3[nH]nnc3oc2c1C [Example 5, 5,6-Dimethyl-9-oxo-1H,9H-benzopyrano[2,3-d]-v-triazole], the “% Inhibitions of rat PCA” value (rat PCA; [3]) is reported as 64% and the “% Inhibitions of rat PCA” value (rat PCA; [4]) is reported as 14%.

With Cc1cc2oc3nn[nH]c3c(=O)c2cc1C [Example 6d] the LD50 (LD50 (toxicity) in mice; iv) was 20 to 80 mg/kg, the LD50 (LD50 (toxicity) in mice; po, per os) was 125 to 500 mg/kg and the “% Inhibitions of rat PCA” value (rat PCA; [5]) was 72%. For the same molecule, the “% Inhibitions of rat PCA” value (rat PCA; [6]) was 22%.

With Cc1ccc2oc3nn[nH]c3c(=O)c2c1C [Example 6e, 7,8-dimethyl-1H,9H-benzopyrano[2,3-d]-v-triazole] the “% Inhibitions of rat PCA” value (rat PCA; [5]) was 86% and the “% Inhibitions of rat PCA” value (rat PCA; [6]) was 45%.

For O=c1c2ccccc2oc2nn[nH]c12 [Example 1, 9-Oxo-1H,9H-benzopyrano[2,3-d]-v-triazole], the “% Inhibitions of rat PCA” value (rat PCA; [1]) was 83% and the “% Inhibitions of rat PCA” value (rat PCA; [2]) was 29%.

With COc1ccc2oc3nn[nH]c3c(=O)c2c1 [Example 4, 7-Methoxy-9-oxo-1H,9H-benzopyrano[2,3-d]-v-triazole] the “% Inhibitions of rat PCA” value (rat PCA; [3]) was 66% and the “% Inhibitions of rat PCA” value (rat PCA; [4]) was 35%.

For Cc1cc(C)c2c(=O)c3[nH]nnc3oc2c1C [Example 7, 9-oxo-5,6,8-Trimethyl-1H,9H-benzopyrano[2,3-d]-v-triazole], the “% Inhibitions of rat PCA” value (rat PCA; [1]) was 40% and the “% Inhibitions of rat PCA” value (rat PCA; [2]) was 18%.
